In the C3SDB collision cross section collection:
Several values for one entry are separate records, joined by “and”; a condition that tells them apart may be missing. Identical values can stand only once. Values belong to the compound of their own block, whether it stands above or below them.

Key:
[1] = instrument: TW, calibrated with polyalanine
[2] = instrument: DT, single field, calibrated with Agilent tune mix (Agilent)
[3] = instrument: DT, stepped-field
[4] = instrument: DT, stepped-field; remark: listed apart in the source
[5] = instrument: DT, single field, calibrated with Agilent tune mix (Agilent); remark: listed apart in the source
[6] = instrument: TW, calibrated with phosphatidylcholines (ESI+) and phosphatidylethanolamines (ESI-)
[7] = instrument: DT, stepped-field; remark: listed apart in the source

collision cross section (N2) ([1]; [M+H]+): 129 Å²
collision cross section (N2) ([2]; [M+H]+): 133.1 Å²
collision cross section (N2) ([2]; [M-H]-): 139.64 Å²
Compound: Cn1cnc(C[C@H](N)C(=O)O)c1 [1-Methylhistidine]

collision cross section (N2) ([1]; [M+H]+): 142 Å²
collision cross section (N2) ([2]; [M+H]+): 143 Å²
Compound: CC(=O)O[C@H](CC(=O)[O-])C[N+](C)(C)C [Acetylcarnitine]

collision cross section (N2) ([1]; [M+H]+): 119 Å²
collision cross section (N2) ([3]; [M+H]+): 127.9 Å²
collision cross section (N2) ([2]; [M+H]+): 125.1 Å²
Compound: Nc1ncnc2nc[nH]c12 [Adenine]

collision cross section (N2) ([1]; [M+H]+): 151 Å²
collision cross section (N2) ([3]; [M+H]+): 156.97 Å²
collision cross section (N2) ([3]; [M+Na]+): 170.07 Å²
collision cross section (N2) ([2]; [M+H]+): 155.7 Å²
Compound: Nc1ncnc2c1ncn2[C@@H]1O[C@H](CO)[C@@H](O)[C@H]1O [Adenosine]

collision cross section (N2) ([1]; [M+H]+): 148 Å²
collision cross section (N2) ([2]; [M+Na]+): 159.5 Å²
Compound: Nc1ccn([C@@H]2O[C@H](CO)[C@@H](O)[C@H]2O)c(=O)n1 [Cytidine]

collision cross section (N2) ([1]; [M+H]+): 116 Å²
collision cross section (N2) ([2]; [M+H]+): 119.7 Å²
Compound: CN(C)CC(=O)O [Dimethylglycine]

collision cross section (N2) ([1]; [M+H]+): 124 Å²
collision cross section (N2) ([3]; [M+H]+): 133.45 Å²
collision cross section (N2) ([3]; [M+Na]+): 138.11 Å²
Compound: NC(=O)CC[C@H](N)C(=O)O [Glutamine]

collision cross section (N2) ([1]; [M+H]+): 160 Å²
collision cross section (N2) ([3]; [M+H]+): 165.02 Å²
collision cross section (N2) ([3]; [M+Na]+): 177.25 Å²
collision cross section (N2) ([2]; [M+Na]+): 174.6 Å²
Compound: Nc1nc(=O)c2ncn([C@@H]3O[C@H](CO)[C@@H](O)[C@H]3O)c2[nH]1 [Guanosine]

collision cross section (N2) ([1]; [M+H]+): 124 Å²
collision cross section (N2) ([3]; [M+H]+): 130.53 Å²
Compound: N[C@@H](CCS)C(=O)O [Homocysteine]

collision cross section (N2) ([1]; [M+H]+): 122 Å²
collision cross section (N2) ([2]; [M+H]+): 128.1 Å²
Compound: O=C(O)[C@@H]1C[C@@H](O)CN1 [Hydroxyproline]

collision cross section (N2) ([1]; [M+H]+): 120 Å²
collision cross section (N2) ([3]; [M+H]+): 135.79 Å²
collision cross section (N2) ([3]; [M+Na]+): 138.88 Å²
collision cross section (N2) ([2]; [M+H]+): 127.1 Å²
Compound: O=c1nc[nH]c2nc[nH]c12 [Hypoxanthine]

collision cross section (N2) ([1]; [M+H]+): 153 Å²
collision cross section (N2) ([3]; [M+H]+): 159.25 Å²
collision cross section (N2) ([3]; [M+Na]+): 175.37 Å²
collision cross section (N2) ([2]; [M+Na]+): 170.7 Å²
Compound: O=c1nc[nH]c2c1ncn2[C@@H]1O[C@H](CO)[C@@H](O)[C@H]1O [Inosine]

collision cross section (N2) ([4]; [M-H]-): 194.5 Å²
Compound: CCCCCCCCCCCCCCCC(=O)O[C@H](CO)COP(=O)(O)O [LPA(16:0)]

collision cross section (N2) ([5]; [M+HCOO]-): 231.3 Å²
collision cross section (N2) ([4]; [M+H]+): 227.7 Å²
collision cross section (N2) ([6]; [M+H]+): 223.4 Å²
Compound: CCCCCC/C=C/CCCCCCCC(=O)OC[C@@H](O)COP(=O)([O-])OCC[N+](C)(C)C [LPC(16:1)]

collision cross section (N2) ([4]; [M-H]-): 213.5 Å²
Compound: CCCCCCC/C=C\CCCCCCCC(=O)OC[C@@H](O)COP(=O)(O)OC[C@@H](O)CO [LPG(17:1)]

collision cross section (N2) ([4]; [M-H]-): 217.9 Å² and 216.9 Å²
Compound: CCCCCCCC/C=C\CCCCCCCC(=O)OC[C@@H](O)COP(=O)(O)OC[C@@H](O)CO [LPG(18:1)]

collision cross section (N2) ([4]; [M-H]-): 226.1 Å²
Compound: CCCCCC/C=C\CCCCCCCC(=O)OC[C@@H](O)COP(=O)(O)O[C@H]1C(O)C(O)C(O)[C@@H](O)C1O (some centres not stated) [LPI(16:1)]

collision cross section (N2) ([5]; [M+H]+): 244.7 Å²
collision cross section (N2) ([5]; [M-H]-): 236.8 Å²
collision cross section (N2) ([4]; [M-H]-): 236.1 Å²
Compound: CCCCCCCCCCCCCCCCCC(=O)OC[C@@H](O)COP(=O)(O)O[C@H]1C(O)C(O)C(O)[C@@H](O)C1O (some centres not stated) [LPI(18:0)]

collision cross section (N2) ([1]; [M+Na]+): 137 Å²
collision cross section (N2) ([7]; [M+Li]+): 144.5 Å²
collision cross section (N2) ([7]; [M+Na]+): 140.6 Å²
Compound: OC[C@@H](O)[C@@H](O)[C@H](O)[C@H](O)CO [Mannitol]

collision cross section (N2) ([4]; [M+H]+): 279.6 Å²
Compound: CCCC/C=C\C/C=C\CCCCCCCC(=O)O[C@H](COC(=O)CCCCCCCCCCCC)COP(=O)([O-])OCC[N+](C)(C)C [PC(14:1/16:1)]

collision cross section (N2) ([4]; [M+H]+): 291.4 Å² and 299.1 Å²
Compound: CCCCCCCCCC/C=C\CCCCCCCCCC(=O)O[C@H](COC(=O)CCCCCCCCCCC)COP(=O)([O-])OCC[N+](C)(C)C [PC(16:0/18:1)]

collision cross section (N2) ([4]; [M+H]+): 287.8 Å²
collision cross section (N2) ([3]; [M+H]+): 280.16 Å²
collision cross section (N2) ([3]; [M+Na]+): 286.9 Å²
Compound: CCCCC/C=C\C/C=C\CCCCCCCCCC(=O)O[C@H](COC(=O)CCCCCCCCCCC)COP(=O)([O-])OCC[N+](C)(C)C [PC(16:1/16:1)]

collision cross section (N2) ([4]; [M+H]+): 295.3 Å² and 295.1 Å²
Compound: CCCCC/C=C\C/C=C\CCCCCCCCCC(=O)O[C@H](COC(=O)CCCCCCCCCCCCC)COP(=O)([O-])OCC[N+](C)(C)C [PC(16:1/18:1)]

collision cross section (N2) ([4]; [M+H]+): 306.1 Å² and 306 Å²
Compound: CCCC/C=C\CCCCCCCC(=O)OC[C@H](COP(=O)([O-])OCC[N+](C)(C)C)OC(=O)CCCCCCCCCCCCCCCCCCCCC [PC(18:0/18:1)]

collision cross section (N2) ([4]; [M+H]+): 302.7 Å² and 302.8 Å²
collision cross section (N2) ([3]; [M+H]+): 296.42 Å² and 297.29 Å²
collision cross section (N2) ([3]; [M+Na]+): 298.03 Å² and 300.74 Å²
Compound: CCCCC/C=C\C/C=C\CCCCCCCCCCCC(=O)O[C@H](COC(=O)CCCCCCCCCCCCC)COP(=O)([O-])OCC[N+](C)(C)C [PC(18:1/18:1)]

collision cross section (N2) ([5]; [M+HCOO]-): 289.4 Å²
collision cross section (N2) ([5]; [M+H]+): 288.8 Å²
collision cross section (N2) ([5]; [M+Na]+): 291.9 Å²
collision cross section (N2) ([4]; [M+H]+): 295.8 Å²
collision cross section (N2) ([6]; [M+CH3COO]-): 291.6 Å²
collision cross section (N2) ([6]; [M+H]+): 285.5 Å²
Compound: CCCCC/C=C\C/C=C\CCCCCCCC(=O)OC[C@H](COP(=O)([O-])OCC[N+](C)(C)C)OC(=O)CCCCCCCCC/C=C\CCCCCC [PC(36:3)]

collision cross section (N2) ([4]; [M+H]+): 297.2 Å²
Compound: CCCCC/C=C\C/C=C\CCCCCCCC(=O)O[C@H](COCCCCCCCCCCCCCCCC)COP(=O)([O-])OCC[N+](C)(C)C [PC(o34:2)]

collision cross section (N2) ([4]; [M+H]+): 303.1 Å²
Compound: CCCCC/C=C\C/C=C\CCCCCCCC(=O)O[C@H](COCCCCCCCCCCCCCCCCCC)COP(=O)([O-])OCC[N+](C)(C)C [PC(o36:2)]

collision cross section (N2) ([4]; [M+H]+): 286.1 Å²
Compound: CCCCCC/C=C\CCCCCCCCCC(=O)O[C@H](COC(=O)CCCCCCCCCCCCCCC)COP(=O)(O)OCCN [PE(16:0/18:1)]

collision cross section (N2) ([4]; [M-H]-): 266.7 Å²
Compound: CCCCCCCC/C=C\CCCCCCCCCC(=O)O[C@H](COC(=O)CCCCCCCCCCCC)COP(=O)(O)OCCN [PE(33:1)]

collision cross section (N2) ([7]; [M+Na]+): 278 Å²
collision cross section (N2) ([4]; [M-H]-): 266.5 Å²
Compound: CCCCC/C=C\C/C=C\C/C=C\CCCCC(=O)O[C@H](COCCCCCCCCCCCCCCCC)COP(=O)(O)OCCN [PE(o34:3)]

collision cross section (N2) ([4]; [M-H]-): 268.7 Å²
Compound: CCCCCCCC/C=C\CCCCCCCCCC(=O)O[C@H](COC(=O)CCCCCCCCCCC)COP(=O)(O)OC[C@@H](O)CO [PG(16:0/16:1)]

collision cross section (N2) ([4]; [M-H]-): 276.7 Å² and 277.1 Å² and 277 Å²
Compound: CCCCCCCCCC/C=C\CCCCCCCCCC(=O)O[C@H](COC(=O)CCCCCCCCCCC)COP(=O)(O)OC[C@@H](O)CO [PG(16:0/18:1)]

collision cross section (N2) ([4]; [M-H]-): 280.1 Å²
Compound: CCCCCCCCCCCCCCCC(=O)OC[C@H](COP(=O)(O)O[C@H]1C(O)C(O)C(O)[C@@H](O)C1O)OC(=O)CCCCCCCCCCCCC (some centres not stated) [PI(14:0/16:0)]

collision cross section (N2) ([4]; [M-H]-): 283.6 Å²
Compound: CCCCC/C=C\C/C=C\CCCCCCCC(=O)O[C@H](COC(=O)CCCCCCCCCCC)COP(=O)(O)O[C@H]1C(O)C(O)C(O)[C@@H](O)C1O (some centres not stated) [PI(14:1/16:1)]

collision cross section (N2) ([4]; [M-H]-): 284.6 Å²
Compound: CCCCCCCC/C=C\CCCCCCCCCC(=O)O[C@H](COC(=O)CCCCCCCCCCC)COP(=O)(O)O[C@H]1C(O)C(O)C(O)[C@@H](O)C1O (some centres not stated) [PI(16:0/16:1)]

collision cross section (N2) ([4]; [M-H]-): 282.9 Å²
Compound: CCCC/C=C\CCCCCCCC(=O)OC[C@H](COP(=O)(O)O[C@H]1C(O)C(O)C(O)[C@@H](O)C1O)OC(=O)CCCCCCC/C=C\CCCCCCCC (some centres not stated) [PI(16:1/16:1)]

collision cross section (N2) ([4]; [M-H]-): 295.9 Å² and 296.2 Å²
Compound: CCCC/C=C\CCCCCCCC(=O)OC[C@H](COP(=O)(O)O[C@H]1C(O)C(O)C(O)[C@@H](O)C1O)OC(=O)CCCCCCCCC/C=C\CCCCCCCCCC (some centres not stated) [PI(18:1/18:1)]

collision cross section (N2) ([5]; [M+H]+): 293.2 Å²
collision cross section (N2) ([5]; [M+Na]+): 297.6 Å²
collision cross section (N2) ([5]; [M-H]-): 286.9 Å²
collision cross section (N2) ([4]; [M-H]-): 297.6 Å²
Compound: CCCCC/C=C\C/C=C\CCCCCCCCCCCC(=O)O[C@H](COC(=O)CCCCCCC/C=C\C/C=C\CCCCC)COP(=O)(O)OC[C@H](N)C(=O)O [PS(40:4)]

collision cross section (N2) ([1]; [M+H]+): 152 Å²
collision cross section (N2) ([3]; [M+Na]+): 166 Å²
collision cross section (N2) ([2]; [M+Na]+): 160.1 Å²
Compound: O=c1ccn([C@@H]2O[C@H](CO)[C@@H](O)[C@H]2O)c(=O)[nH]1 [Uridine]

collision cross section (N2) ([1]; [M+H]+): 124 Å²
collision cross section (N2) ([3]; [M+H]+): 138.11 Å²
collision cross section (N2) ([3]; [M+Na]+): 152.65 Å²
collision cross section (N2) ([2]; [M+H]+): 130.3 Å²
Compound: O=c1[nH]c(=O)c2[nH]cnc2[nH]1 [Xanthine]

collision cross section (N2) ([1]; [M+Na]+): 161 Å²
Compound: Nc1ccn([C@H]2C[C@H](O)[C@@H](COP(=O)(O)O)O2)c(=O)n1 [dCMP]

collision cross section (N2) ([1]; [M+H]+): 227 Å²
Compound: N[C@@H](CCC(=O)N[C@@H](CSSC[C@H](NC(=O)CC[C@H](N)C(=O)O)C(=O)NCC(=O)O)C(=O)NCC(=O)O)C(=O)O [glutathione disulfide]

collision cross section (N2) ([1]; [M+H]+): 217 Å²
Compound: CCCCCCCCCCCCCCCC(=O)OC(CC(=O)[O-])C[N+](C)(C)C (configuration not stated) [palmitoylcarnitine]

collision cross section (N2) ([1]; [M]+): 159 Å²
Compound: Cc1ncc(C[n+]2csc(CCO)c2C)c(N)n1 [thiamine]
